For one sequence, self-assembly into nanofibers, Survival rate and Final weight results are on record in publication PMC12363211, “Rationally designed self-assembled peptide nanofibers provoke robust humoral immunity against nervous necrosis virus” (Journal of Virology, 2025).

Data set [1] in a line: Nanofiber self-assembly and morphology (TEM). The format is physicochemical. The conditions noted are these: in the salts (pH = 7). How it is done: CP^64-83-Q11 nanofiber synthesis and characteristics
Q11, CP^64-83, and CP^64-83-Q11 peptides were synthesized and purified by Genecreate Co. (Wuhan). […] The morphology of the CP^64-83-Q11 was determined by transmission electron microscopy (TEM) using a Hitachi Model H-7700 microscope (Hitachi, Japan). The particle size of reassembled CP^64-83-Q11 was determined using a Zetasizer (nano ZS90, Malvern Panalytical, UK). The secondary structure of CP^64-83-Q11 nanovaccine was analyzed by circular dichroism (CD) spectra (Chirascan V100, Applied Photophysics, UK).

Another data set deals with grouper. Kind of data set: In vivo safety: survival, weight and pathology of vaccinated grouper. The conditions noted are these: i.p. 2 mM, 28-day period. On the procedure: NNV-free pearl gentian grouper (Epinephelus lanceolatus × Epinephelus fuscoguttatus) juveniles (5.12 ± 0.63 g) were purchased from a commercial fish farm (Wenchang, Hainan, China). Real-time quantitative polymerase chain reaction (qPCR) was used to detect NNV in purchased fish. Primers of NNVdetection F: […] and NNVdetection R: […] were used for NNV detection. Grouper were reared in a recirculating water system with filtered seawater at 28.0 ± 1.0°C. Each tank contains 50 L seawater with continuous aeration. Fish were fed twice daily and acclimated for 15 days before experiments.
Safety evaluation of the CP^64-83-Q11 nanofiber
The safety evaluation of the synthesized nanofiber was assessed using in vitro and in vivo models. For the in vitro cytotoxicity evaluation, the standard MTT assay was employed. GF-1 cells and grouper macrophages were seeded into 96-well plates at a density of 5 × 10⁵ cells per well. These cells were then exposed to varying concentrations (1, 5, 10, 20, and 40 µg/mL) of Q11, CP^64-83, CP, or CP^64-83-Q11 for 24 h. […] Absorbance was then measured at 490 nm using a microplate reader. Cell viability was calculated as follows: Cell viability = (ODtreatment group − ODblank)/(ODcontrol group − ODblank) × 100%. […] Additionally, the initial and final weights of the fish were monitored throughout the 28-day period.

Marks after values point to notes of the source that are not given here.

“QQKFQFQFEQQ [Q11, Q11 peptide (…), a minimalist self-assembling motif]”: the self-assembly into nanofibers entry in data set [1] is given as “could self-assemble into nanofibers in the salts (pH = 7)”. Also, the Survival rate with grouper (unchallenged vaccinated grouper, 78 fish per group, all groups incl. control share letter a) was 98.26 ± 3.37^a %. Moreover, the Final weight in the data set with grouper (vaccinated grouper, initial weight 5.12 ± 0.63 g, all groups incl. control (8.96 ± 1.02) share letter a) was 8.72 ± 0.56^a g.
